The numbers were not newly measured in patent publication EP4578905A1, “COMPOSITION, PREPARATION METHOD THEREFOR, AND USE THEREOF” (Bloomage Biotechnology Corporation Limited, priority 2022, dated 2024), which cites them from elsewhere.

Like-named read-outs stand apart in the source and are kept apart here.

For `NCCCC(=O)O` [γ-aminobutyric acid], the “dissociation constant pK” value is listed as 4.03 (first pK printed) and 10.56 (second pK printed).
